In ChEMBL document CHEMBL1156350, “New multiflorane-type triterpenoid acids from Sandoricum indicum” (J Nat Prod, 2001):
Converted amounts (≈) assume the structure as drawn.

Experiments:
Format in all cases: functional, cell-based
[1] = system: Lymphocyte; assay: Immunosuppressant activity in mouse lymphocytes assessed as inhibition of lymphocyte proliferation
[2] = system: P388/S; assay: Cytotoxicity against drug-sensitive mouse P388/S cells
[3] = system: P388; assay: Cytotoxicity against vincristine-resistant mouse P388 cells
[4] = system: P388; assay: Cytotoxicity against vincristine-resistant mouse P388 cells in presence of vincristine
[5] = system: P388; assay: Cytotoxicity against adriamycin-resistant mouse P388 cells
[6] = system: P388; assay: Cytotoxicity against adriamycin-resistant mouse P388 cells in presence of adriamycin
[7] = system: HL-60; assay: Cytotoxicity against human HL60 cells

| SMILES | IC50 [1] [mg/L] | IC50 [2] [mg/L] | IC50 [3] [mg/L] | IC50 [4] [mg/L] | IC50 [5] [mg/L] | IC50 [6] [mg/L] | IC50 [7] [mg/L] |
| --- | --- | --- | --- | --- | --- | --- | --- |
| CC1(C)[C@@H](O)CC[C@]2(C)[C@H]3CC=C4[C@@H]5C[C@](C)(C(=O)O)CC[C@]5(C)CC[C@@]4(C)[C@]3(C)CC[C@@H]12 | 50 (≈ 109 µM) | > 25 | > 25 | > 25 | > 25 | > 25 | – |
| CC1(C)C(=O)CC[C@]2(C)[C@H]3CC=C4[C@@H]5C[C@](C)(C(=O)O)CC[C@]5(C)CC[C@@]4(C)[C@]3(C)CC[C@@H]12 | 25 (≈ 55 µM) | > 25 | 12 (≈ 26.4 µM) | 12 | > 25 | > 25 | 15 (≈ 33 µM) |
| C=C(C)[C@@H]1CC[C@]2(C)[C@H](CC=C3[C@@H]4C[C@](C)(C(=O)O)CC[C@]4(C)CC[C@]32C)[C@@]1(C)CCC(=O)O | > 100 | > 25 | > 25 | > 25 | > 25 | > 25 | – |
| CC1(C)[C@H](O)CC[C@]2(C)[C@H]3CC=C4[C@@H]5C[C@](C)(C(=O)O)CC[C@]5(C)CC[C@@]4(C)[C@]3(C)CC[C@@H]12 [KATONIC ACID] | 25 (≈ 54.7 µM) | > 25 | 25 (≈ 54.7 µM) | 16 | > 25 | > 25 | – |
| C=C(C)[C@@H]1CC[C@]2(C)[C@H](CC=C3[C@@H]4C[C@@](C)(C(=O)O)CC[C@]4(C)CC[C@]32C)[C@@]1(C)CCC(=O)O [KOETJAPIC ACID] | > 100 | > 25 | > 25 | > 25 | > 25 | > 25 | – |
| CC1(C)C(=O)CC[C@]2(C)C3=C(CC[C@@H]12)[C@@]1(C)CC[C@@]2(C)CC[C@@](C)(C(=O)O)C[C@@]2(O)[C@]1(C)[C@H](O)C3 [SANDORINIC ACID A] | 25 (≈ 51.4 µM) | 16 (≈ 32.9 µM) | 10 (≈ 20.5 µM) | 9 | 9 (≈ 18.5 µM) | 9 | 15 (≈ 30.8 µM) |
| CC1(C)C(=O)CC[C@]2(C)[C@H]3C[C@@H](O)[C@@]4(C)[C@]5(O)C[C@](C)(C(=O)O)CC[C@]5(C)CC[C@]4(C)C3=CC[C@@H]12 [SANDORINIC ACID B] | 50 (≈ 103 µM) | > 25 | 16 (≈ 32.9 µM) | 16 | 18 (≈ 37 µM) | > 25 | – |
| CC1(C)C(=O)CC[C@]2(C)C3=C(CC[C@@H]12)[C@@]1(C)CC[C@@]2(C)CC[C@@](C)(C(=O)O)C[C@H]2[C@]1(C)[C@H](O)C3 [SANDORINIC ACID C] | – | > 25 | > 25 | > 25 | > 25 | > 25 | – |
